Laboratory results taken from US9598716B2, “Destructible surfactants and uses thereof” (Waters Technologies Corporation, priority 2002, dated 2017).

Key:
[1] = biological target: T1, horse skeletal muscle myoglobin (Equus caballus, UniProt P68082); assay: Mass spectrometric detection of myoglobin treated with ALS or SDS (electrospray); settings: 5 μM myoglobin with 0.1% surfactant; ALS degraded in 10% acetic acid for 16 hours
T1 construct: horse skeletal muscle myoglobin (Sigma. P/N M0630); purchased Sigma M0630; host or cells: horse skeletal muscle
Protocol: Mass spectrometric detection was performed on myoglobin using a Platform LC (Micromass, Manchester, UK) with constant infusion. A stock solution of 50 μM horse skeletal muscle myoglobin (Sigma. P/N M0630) was prepared in 50/50 20 mM ammonium acetate, pH 5.1/acetonitrile (v/v). A stock solution of 1% SDS and 1% ALS were also prepared in both 50/50 ammonium acetate/acetonitrile, and 40/40/10 ammonium acetate/acetonitrile/glacial acetic acid. The surfactant stock solutions were both prepared fresh, and allowed to sit for at least 16 hours. To 100 μL of each of the surfactant stock solutions was added 100 μL of myoglobin stock and 800 μL 50/50 ammonium acetate/acetonitrile. Each solution was then drawn into a 1 mL syringe and placed in a syringe pump (Harvard Instruments). The solution was infused into the mass spectrometer at a flow rate of 20 μL/min. Mass spectrometer settings were as follows:
Gas flow rate: 340 L/h; Source temperature: 100° C., Capillary voltage: 3.46 kV; Cone voltage: 25 V; Ion energy: 0.6; Scan rate: 3.0 sec/scan; Scan range: 250-1600 amu.

trypsin = assay: Trypsin activity assay (rate of hydrolysis of BAEE to BA, UV); format: biochemical; settings: for Trypsin activity (%): 0.5 μg of trypsin in 50 mM ammonium bicarbonate, pH 7.9, no additive = 100
Protocol: Trypsin activity measurements were carried out by introducing 1 μg/ml of trypsin to 0.25 mM N-α-benzoyl-L-arginine ethyl ester (BAEE, pH 7.9) at room temperature. Changes in trypsin activity were plotted by measuring the rate of hydrolysis of BAEE to a UV active product, BA, at A 252 nm.

Lys-C = biological target: T2, Lys-C (Lysobacter enzymogenes, UniProt Q7M135); assay: Comparative digestion of myoglobin with Lys-C; format: biochemical; settings: with ALS, no observable digestion without ALS
T2 construct: purchased Roche Diagnostics
Protocol: (§1) Proteins (2-20 μM), indicated in Table 2, were solubilized in 50 mM NH4HCO3 or 0.1-0.25% (w/w) ALS before tryptic digestion. The trypsin to protein ratio used was 1-2%. The protein (˜17 μM) was solubilized with 8M urea or 0.25% ALS. After tryptic digestion, ALS was destroyed rapidly by addition of strong acid such as HCl or TFA. The by-products were removed by centrifugation prior to MS analysis. Protein digests were mass analyzed either by a MALDI.TOF mass spectrometer (M@LDI™ LR, Micromass UK Ltd) or separated by RP-HPLC (CapLC®, Waters Corporation) then interfaced to an orthogonal acceleration TOF mass spectrometer (LCT™, Micromass UK Ltd) via an electrospray ionization source.
(§2) Myoglobin comparative digestion was performed as in Example 3 (in the presence and absence of ALS), with the exchange of the following proteases for trypsin: • A. Asp-N (FIG. 4A) • B. Lys-C (FIG. 4B) • C. Glu-C (FIG. 4C) Digestions were performed for about 50 minutes. The enzymes were purchased from Roche Diagnostics. Analysis is shown in FIGS. 4A-4C, as indicated above. In each case, when no ALS was in the digestion solution, no observable digestion took place. However, with ALS, within about 50 minutes, the entire protein was consumed.

Glu-C = biological target: T3, Glu-C (Staphylococcus aureus, UniProt P0C1U8); assay: Comparative digestion of myoglobin with Glu-C; format: biochemical; settings: with ALS, no observable digestion without ALS
T3 construct: purchased Roche Diagnostics
Protocol: as §1, §2

[2] = pH 7
Excerpt: After the chemical reaction proceeds, the surfactant of the present invention involved in enhancing the chemical reaction can be degraded, e.g., by contact with an acidic solution.

T1 sequence (P68082 whole entry): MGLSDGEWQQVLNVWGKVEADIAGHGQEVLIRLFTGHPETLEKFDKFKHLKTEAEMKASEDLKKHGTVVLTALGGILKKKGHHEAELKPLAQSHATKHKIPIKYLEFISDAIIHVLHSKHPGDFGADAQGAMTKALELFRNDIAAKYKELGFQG
T3 sequence (P0C1U8 69-336): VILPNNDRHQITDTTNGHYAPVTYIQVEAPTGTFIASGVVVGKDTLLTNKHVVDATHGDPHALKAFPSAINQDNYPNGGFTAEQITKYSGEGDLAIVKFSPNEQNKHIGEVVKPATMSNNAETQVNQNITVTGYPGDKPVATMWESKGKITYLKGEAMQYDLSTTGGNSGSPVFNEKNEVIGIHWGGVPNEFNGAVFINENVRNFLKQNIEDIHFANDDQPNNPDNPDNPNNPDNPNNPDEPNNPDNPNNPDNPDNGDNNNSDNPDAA
T2 sequence (Q7M135 whole entry): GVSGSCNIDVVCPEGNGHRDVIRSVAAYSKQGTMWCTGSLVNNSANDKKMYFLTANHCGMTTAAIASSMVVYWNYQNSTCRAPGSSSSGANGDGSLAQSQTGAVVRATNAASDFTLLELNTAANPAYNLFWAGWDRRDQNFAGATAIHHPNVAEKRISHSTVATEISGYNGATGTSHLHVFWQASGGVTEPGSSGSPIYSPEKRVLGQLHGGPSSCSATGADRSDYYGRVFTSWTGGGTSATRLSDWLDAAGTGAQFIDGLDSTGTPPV

| Compound | Myoglobin signal in electrospray mass spectrum [1] | Trypsin activity (%) (trypsin; additive at 0.1%) | Trypsin activity (%) (trypsin; additive at 0.5%) | Trypsin activity (%) (trypsin; additive at 50%) | further results |
| --- | --- | --- | --- | --- | --- |
| CCCCCCCCCCCCOS(=O)(=O)[O-].[Na+] [SDS, sodium dodecylsulfate] | no signals due to myoglobin are observed | 20 | 1 | – | Effect on trypsin activity (in words) (trypsin; each of the percentages examined): inhibits trypsin activity |
| CO [Methanol] | – | – | – | 31 | – |
| NC(N)=O [Urea] | – | – | – | – | Trypsin activity (%) (trypsin; additive at 2M): 85%; Trypsin activity (%) (trypsin; additive at 4M): 71% |
| sodium 4-[(2-methyl-2 undecyl-1,3-dioxolan-4-yl)methyl]-1-propanesulfonate [ALS] | strong myoglobin signal | 99 | 87 | – | Time until the entire protein (myoglobin) was consumed (Lys-C): ≤ 50 min; Effect on trypsin activity (in words) (trypsin; ALS added to the trypsin solution containing SDS): increase in trypsin activity; Time until the entire protein (myoglobin) was consumed (Glu-C): ≤ 50 min; Stability of the surfactant [2]: stable |
| CC#N [Acetonitrile] | – | – | – | 92 | – |
